In general, half-life refers to how long it takes for the measured level to halve.

The nature of data set [1]: Plasma concentration profile after oral PXS-5505 30 mg/kg (Extended Data Fig. 3f). Type of data set: in vivo, mice. The settings on record: for Plasma concentration: mice, individual replicates.
Data set [2] can be described thus: Tissue concentration by LC-MS/MS after single oral dose of 30 mg/kg (plasma, kidney, liver, lung, heart, ear; Extended Data Fig. 3e). As for the experimental part: PXS-5505 concentration, as measured by LC–MS/MS, in rat plasma, kidney, liver, lung, heart and ear samples following a single oral dose of 30 mg/kg (n = 3 independent animals). Data presented as mean values +/− SD. f. Plasma concentration profile over time in mice following oral administration of PXS-5505 (30 mg/kg) (n = 3 independent animals) g. Schematic of amplex red coupled fluorometric lysyl oxidase family activity assay whereby putrescine (put) is used as a substrate resulting in the release of H2O2 and its subsequent catalysis by horseradish peroxidase (HRP) to […] amplex red to resorufin resulting in a fluorescently detectable signal. […] Data presented as mean values +/− SD. h. qRT-PCR showing in vitro 48 hour treatment of KPC CAFs or cancer cells with 30 μM PXS-5505 or vehicle control (n = 3 biological repeats with 3 technical replicates per biological repeat). Data presented as mean values +/− SD. Relative fold expression of lysyl oxidase family members from PXS-5505 treated samples compared to control were determined by the 2^–∆∆Ct approach. p-values determined by unpaired, nonparametric t-test with a Mann–Whitney U correction (comparison between two groups). i. 2D in vitro cell viability assay (MTS assay) for KPC CAFs and CCs (n = 3 biological repeats with 3 technical replicates per biological repeat) in response to PXS-5505. Data presented as mean values +/− SD. Ordinary one-way ANOVA for multiple comparison test performed. j. 3D in vitro cell viability assay (MTS assay) for KPC CAFs and CCs (n = 3 biological repeats with 3 technical replicates per biological repeat) in response to PXS-5505. Data presented as mean values +/− SD. Ordinary one-way ANOVA for multiple comparison test performed. Source data

The next data set relates to CD8. Put plainly: Immunohistochemistry of end-point KPC tumors: T-cell infiltration. Type of data set: in vivo, mouse. The settings on record: KPC tumours at endpoint; individual replicate values (Extended Data 6I). As for the experimental part: All tissues or matrices, including patient TMAs, were fixed in 10% buffered formalin and embedded in paraffin. The 4-μm sections of samples were deparaffinized with xylene and rehydrated in graded ethanol washes. For immunohistochemistry, Bond Dewax Solution (AR9222) was used. Antigen retrieval was performed using Bond RX H2(30) protocol: HIER 30 min ER1 (citrate pH 6) OR ER2 (EDTA pH 9) at 100 °C. Slides were quenched in BOND Polymer Refine Detection (Leica Biosystems DS9800). […] Slides were digitized on an Aperio slide scanner and representative areas per tumor acquired and analyzed by researchers blinded to the conditions of the experiment.
Extended Data Fig. 6 PXS-5505 in combination with gemcitabine in a KPC model. a. Quantification of proliferating cells (Ki67 positive nuclear staining) in KPC tumors at end point, treated as indicated. 5 fields of view (500 μm × 500 μm) per mouse and 10 mice per cohort were scored. […] Quantification of percent coverage of αSMA positive staining in KPC tumors at end point, treated as indicated. 3 fields of view (1000 μm × 1000 μm) per mouse and 10 mice per cohort were scored. […] Quantification of percent coverage of PDGFR-ß positive staining in KPC tumors at end point, treated as indicated. 3 fields of view (1000 μm × 1000 μm) per mouse and 10 mice per cohort were scored. […] 3 fields of view (500 μm × 500 μm) per mouse and 10 mice per cohort were scored. […]

Where [3] appears, read: rat, single oral dose 30 mg/kg, 1 hr, n = 3.

Values joined by “and” are separate entries in the source; they are usually repeats but may differ in a detail not shown here. Equal values may be shown once.

`Cl.Cl.NC/C=C(\F)CS(=O)(=O)c1cccc2cccnc12.O` [PXS-5505, (Z)-3-fluoro-4-(quinolin-8-ylsulfonyl)but-2-en-1-amine dihydrochloride monohydrate]: the Plasma concentration in data set [1] (oral 5 mg/kg, time 0.5 hrs, 5 mg/kg) was 424 and 270.3 and 246.9; in data set [1] (oral 5 mg/kg, time 1 hrs, 5 mg/kg) it was 183.1 and 190 and 142.6; in data set [1] (oral 5 mg/kg, time 2 hrs, 5 mg/kg) it was 40.1 and 93 and 39.5; in data set [1] (oral 5 mg/kg, time 4 hrs, 5 mg/kg), 10.2 and 13.8 and 3.1; in data set [1] (oral 5 mg/kg, time 8 hrs, 5 mg/kg) it was 3.2 and 2.1 and 1.3; in data set [1] (oral 10 mg/kg, time 0.5 hrs, 10 mg/kg), 1283.4 and 374.2 and 656.3. The Plasma concentration is 814.4 and 337 and 493.5 in data set [1] (oral 10 mg/kg, time 1 hrs, 10 mg/kg); 138.5 and 336.7 and 262.8 in data set [1] (oral 10 mg/kg, time 2 hrs, 10 mg/kg); 113.3 and 25.7 and 30.1 in data set [1] (oral 10 mg/kg, time 4 hrs, 10 mg/kg); 14.4 and 5.9 and 4.9 in data set [1] (oral 10 mg/kg, time 8 hrs, 10 mg/kg); 3584.3 and 3445.6 and 4112.8 in data set [1] (oral 30 mg/kg, time 0.5 hrs, 30 mg/kg); 3340.5 and 2725.9 and 2974.4 in data set [1] (oral 30 mg/kg, time 1 hrs, 30 mg/kg). Further, the Plasma concentration in data set [1] (oral 30 mg/kg, time 2 hrs, 30 mg/kg) was 1379.4 and 1690.4 and 1354.7; in data set [1] (oral 30 mg/kg, time 4 hrs, 30 mg/kg) it was 160.9 and 186.3 and 206.9; in data set [1] (oral 30 mg/kg, time 8 hrs, 30 mg/kg), 13.1 and 14.5 and 13.6. In data set [1] (mouse, plasma, single oral dose 30 mg kg−1, read-out: calculated half-life (plasma) (converted)), the half-life was 1 h. Moreover, the tissue penetration entry in data set [2] (after oral administration) is “penetrates core and peripheral matrix-rich tissues (the ear pinnae) well”. For the same molecule, the “PXS-5505 concentration by LC-MS/MS, ear, Mean” value in data set [2] (setting [3]) came to 1911.2. Besides, the “PXS-5505 concentration by LC-MS/MS, heart, Mean” value in data set [2] (setting [3]) came out at 5777.3. Also, the “PXS-5505 concentration by LC-MS/MS, kidney, Mean” value in data set [2] (setting [3]) was found to be 19237.2. The “PXS-5505 concentration by LC-MS/MS, liver, Mean” value in data set [2] (setting [3]) is 32467.6. The “PXS-5505 concentration by LC-MS/MS, lung, Mean” value in data set [2] (setting [3]) is 954.9. Also, the “PXS-5505 concentration by LC-MS/MS, plasma, Mean” value in data set [2] (setting [3]) is 3609.6. The “T-cell infiltration (CD8 positive staining)” value in the data set with CD8 was 7 and 5.

The values are drawn from PMC10518255, “A first-in-class pan-lysyl oxidase inhibitor impairs stromal remodeling and enhances gemcitabine response and survival in pancreatic cancer” (Nature Cancer, 2023).
